Where two headings read alike, the source gives them in different places. Bridge positions count the residues as written; N and C are the ends. Square brackets hold non-standard residues; d marks the D form. Peptide text beside a SMILES is read from it. * marks the point of attachment. X10 = NCCCC[C@H](NC(=O)[C@@H](N)CCCCNC(=O)C*)C(=O)N[C@@H](CS)C(N)=O; X2 = N=C(N)NCCC[C@H](NC(=O)[C@H](CS)NC(=O)CNC(=O)CNC(=O)C*)C(N)=O; X1 = NCCCC[C@H](NC(=O)[C@H](CS)NC(=O)CNC(=O)CNC(=O)C*)C(N)=O; NMeF = CN[C@@H](Cc1ccccc1)C(=O)O; hCys = N[C@@H](CCS)C(=O)O; Acm = CC(=O)NC*
How the values were obtained:
[1] = tested on: Somatostatin Receptor (SSTR)-expressing CA20948 rat pancreatic tumors; assay: Localization and in vivo biodistribution/imaging of Tc-99m labeled peptides in CA20948 tumor-bearing Lewis rats; settings: 90-minute biodistribution; for T/B (tumor/blood ratio) / T/M / % ID/g Tumor: 99mTc-labeled peptide, i.v.; for % ID/g Tumor: CA20948 tumor-bearing Lewis rats
Method: (§1) CA20948 rat pancreatic tumor cells, thawed from frozen harvested tumor brei, were implanted intramuscularly in a suspension of 0.05 to 0.1 mL/animal, into the right hind thigh of 6 week old Lewis rats. The tumors were allowed to grow to approximately 0.5 to 2 g, harvested, and tumor brei was used to implant a second, naive set of Lewis rats. Passaging in this fashion was repeated to generate successive generations of tumor-bearing animals. The tumor-bearing animals used for the in vivo studies were usually from the third to fifth passage and carried 0.2 to 2 g tumors.
(§2) For studies of the specificity of radiotracer localization in the tumors, selected animals were given an subcutaneous SSTR-blocking dose (4 mg/kg) of octreotide 30 minutes prior to injection of the radiotracer.
(§3) Third- to fifth-passage CA20948 tumor-bearing Lewis rats were restrained and injected intravenously via the dorsal tail vein with a dose of 0.15-0.20 mCi ^99m Tc-labeled peptide corresponding to 3 to 8 μg peptide in 0.2 to 0.4 mL.
(§4) At selected times, the animals were sacrificed by cervical dislocation and selected necropsy was performed. Harvested tissue samples were weighed and counted along with an aliquot of the injected dose in a gamma well-counter.

[2] = tested on: SSTR-expressing tumors; assay: Clinical trial: scintigraphic imaging of human patients bearing SSTR-expressing tumors with Tc-99m labeled P587; type: in vivo; settings: i.v., within 30 minutes of injection
From the text: In a clinical trial, scintigraphic imaging of human patients bearing SSTR-expressing tumors was achieved using the Tc-99m labeled P587 reagent.
A total of 10 patients, four females and six males ranging in age from 27 to 69 years, had been previously diagnosed with growth hormone-secreting pituitary adenoma (4 patients), melanoma (1 subject), medullary thyroid cancer (1 subject), small cell lung carcinoma (SCLC; 1 patient), non-Hodgkin's lymphoma (1 patient) or gastric carcinoid (1 patient). Each of these patients were administered Tc-99m labeled P587 at a dose of 10-22 mCi per 0.2-0.5 mg by intravenous injection. Scintigraphic imaging was them performed as described herein on each patient for 4 hours post-injection.
Gamma camera imaging is started simultaneously with injection. Anterior images were acquired as a dynamic study (10 sec image acquisitions) over the first 10 min, and then as static images at 1, 2, 3 and 4 h post-injection. Anterior images were acquired for 500,000 counts or 20 min (whichever is shorter), at approximately 10-20 min, and at approximately 1, 2, 3 and 4 h post-injection.

[3] = molecular target: T1, somatostatin receptor (Rattus norvegicus, UniProt P30680); assay: Inhibition of binding of {125I-Tyr11}somatostatin-14 to AR42J rat pancreatic tumor cell membranes; settings: uncomplexed peptide, {125I-Tyr11}somatostatin-14 0.5 nM
T1 construct: endogenous in cells; host or cells: AR42J rat pancreatic tumor cell line (membrane preparation)
Method: The rat pancreatic tumor cell line AR42J which expresses the somatostatin receptor was cultured in Dulbecco's minimal essential media (DMEM) supplemented with 10% fetal bovine serum (FBS) and 8 mM glutamine in a humdified 5% CO2 atmosphere at 37° C. in T-flasks. Harvested cells were homogenized in cold 50 mM Tris-HCl buffer (pH 7.4) and the homogenate then centrifuged at 39,000 g for 10 min at 4° C. Pellets were washed once with buffer and then resuspended in an ice-cold solution of 10 mM Tris-HCl (pH 7.4). Equal aliquots of this cell membrane preparation were incubated with {^125 I-Tyr^11 }somatostatin-14 (at a final concentration of 0.5 nM and 750,000 cpm/mL, at a specific activity of 2000 Ci/mmol, Amersham, Arlington Heights, Ill.) and peptide or peptide-rheniumcomplex at a final concentration of from 10^-11 M to 10^-6 M in a solution of 50 mM HEPES (pH 7.4) containing 1 % bovine serum albumin (BSA), 5 mM MgCl2, Trasylol (200,000 International Units), bacitracin (0.02 mg/mL) and phenylmethylsulfonylfluoride (0.02 mg/mL) for 25min at 30° C. Using a filtration manifold, this mixture was filtered through a polyethyleneimine-washed GC/F filter (Whatman, Maidstone, England), and the residue remaining on the filter washed thrice with 5 mL cold HEPES buffer. The filter and a sample of the filter washings were then counted in a gamma counter. To assess non-specific binding, the assay was performed in the presence of unlabeled somatostatin-14 at 200 nM. Data analysis including Hill plots of the data provided inhibition constants (see Bylund & Yamamura, "Methods of receptor binding", in Methods in Neurotransmitter Receptor Analysis, Yamamura et al., eds., Raven Press: New York, 1990).

[4] = tested on: Somatostatin Receptor (SSTR)-expressing CA20948 rat pancreatic tumors; settings: in vivo, iv
Method: as §1, §2, §3, §4

T1 sequence (P30680 whole entry): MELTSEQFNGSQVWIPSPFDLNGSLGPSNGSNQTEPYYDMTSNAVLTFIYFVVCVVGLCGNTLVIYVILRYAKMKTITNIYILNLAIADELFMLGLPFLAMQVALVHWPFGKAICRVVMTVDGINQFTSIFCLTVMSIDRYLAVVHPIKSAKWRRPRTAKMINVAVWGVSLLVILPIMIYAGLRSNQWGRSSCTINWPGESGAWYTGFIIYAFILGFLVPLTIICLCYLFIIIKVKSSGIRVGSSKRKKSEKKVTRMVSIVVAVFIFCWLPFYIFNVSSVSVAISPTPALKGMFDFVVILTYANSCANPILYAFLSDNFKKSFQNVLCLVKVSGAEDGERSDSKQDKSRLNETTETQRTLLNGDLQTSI

Compound	Ki [3]	T/B (tumor/blood ratio) [4]	T/M [4]	also measured
CC(C)[C@@H]1NC(=O)[C@H](CCCCN)NC(=O)[C@@H](Cc2c[nH]c3ccccc23)NC(=O)[C@H](Cc2ccc(O)cc2)NC(=O)[C@H](Cc2ccccc2)N(C)C(=O)[C@H](CCSCC(=O)NCC(=O)NCC(=O)N[C@@H](CS)C(=O)N[C@@H](CCCCN)C(N)=O)NC1=O (99mTc complex, metal not drawn) [Peptide P587, cyclo(N-methyl)FYWD KV.Hcy.(CH2 CO.GGCK.amide)] (cyclo([NMeF]Y[dW]KV[hCys](X1)))	–	–	–	tumor uptake and tumor/blood ratios (in words) [1]: very high; T/B (tumor/blood ratio) [1]: 6.0; T/M [1]: 33; % ID/g Tumor [1]: 3.4 % ID/g; injected dose remaining in the circulation [2]: less than 10%
CC(C)[C@@H]1NC(=O)[C@H](CCCCN)NC(=O)[C@@H](Cc2c[nH]c3ccccc23)NC(=O)[C@H](Cc2ccc(O)cc2)NC(=O)[C@H](Cc2ccccc2)N(C)C(=O)[C@H](CCSCC(=O)NCC(=O)NCC(=O)N[C@@H](CS)C(=O)N[C@@H](CCCNC(=N)N)C(N)=O)NC1=O (99mTc complex, metal not drawn) [Peptide P617, cyclo(N-methyl)FYWD KV.Hcy.(CH2 CO.GGCR.amide)] (cyclo([NMeF]Y[dW]KV[hCys](X2)))	–	–	–	tumor uptake and tumor/blood ratios (in words) [1]: very high; T/B (tumor/blood ratio) [1]: 9.4; T/M [1]: 36; % ID/g Tumor [1]: 6.7 % ID/g
CC(=O)NCSC[C@H](NC(=O)CNC(=O)[C@H](CSCNC(C)=O)NC(=O)[C@@H]1CSCC(=O)N[C@@H](Cc2ccccc2)C(=O)N[C@@H](Cc2ccccc2)C(=O)N[C@H](Cc2c[nH]c3ccccc23)C(=O)N[C@@H](CCCCN)C(=O)N[C@@H]([C@@H](C)O)C(=O)N[C@@H](Cc2ccccc2)C(=O)N1)C(N)=O [CH2 CO.FFWD KTFCCAcm GCAcm.amide] ({CH2CO}-FF[dW]KTFCC(Acm)GC(Acm)-NH2; thioether N-7)	7.5 nM	–	–	–
C[C@@H](O)[C@@H]1NC(=O)[C@H](CCCCN)NC(=O)[C@@H](Cc2c[nH]c3ccccc23)NC(=O)[C@H](Cc2ccccc2)NC(=O)[C@H](Cc2ccccc2)NC(=O)CSC[C@@H](C(=O)NCC(=O)NCC(=O)N[C@@H](CS)C(N)=O)NC(=O)[C@H](Cc2ccccc2)NC1=O [CH2 CO.FFWD KTFCGGC.amide] ({CH2CO}-FF[dW]KTFCGGC-NH2; thioether N-7)	9.4 nM	–	–	–
CC(C)[C@@H]1NC(=O)[C@H](CCCCN)NC(=O)[C@@H](Cc2c[nH]c3ccccc23)NC(=O)[C@H](Cc2ccc(O)cc2)NC(=O)[C@H](Cc2ccccc2)N(C)C(=O)[C@H](CCSCC(=O)NCCCC[C@H](N)C(=O)N[C@@H](CCCCN)C(=O)N[C@@H](CS)C(N)=O)NC1=O [cyclo.(N-Me)FYWD KV.Hcy(CH2 CO.(ε-K)KC.amide)] (cyclo([NMeF]Y[dW]KV[hCys](X10)))	2.2 nM	–	–	–

Further lines, with some results ahead:

Ki [3]	T/B (tumor/blood ratio) [4]	T/M [4]	Compound	also measured
–	0.91	7.4	KKKK.NalD.Cpa.YWD KTFT(ε-K)GCDDDD.amide [Peptide P550]	–
–	13	49	cyclo.(N--CH3)FYWD KV.Hcy(CH2 CO.(β-Dap)KCK.amide) [Peptide P829]	–
–	13	37	cyclo.(N--CH3)FYWD KV.Hcy(CH2 CO.(β-Dap)KCR.amide) [Peptide P832]	–
–	0.85	4.6	cyclo.(N-Me)FYWD KV.Hcy(CH2 CO.(ε-K)KC.amide) [Peptide P625]	–

Reference: US6051206A, “Radiolabeled somatostatin-derived peptides for imaging and therapeutic uses” (Diatide, Inc, priority 1996, dated 2000)
